Reference: US12398154B2, “Azaquinazoline pan-KRas inhibitors” (Mirati Therapeutics, Inc., priority 2020, dated 2025)

Experiments:
KRas G12A = KRas G12A (Homo sapiens, UniProt P01116, G12A); assay: biochemical;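 also: binding to KRas measured by TR-FRET displacement after one hour at room temperature, IC50 from a four-parameter fit of percent-of-control values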
Experimental: (§2) The ability of a compound to bind to KRas was measured using a TR-FRET displacement assay. […] After a 60-minute incubation at room temperature, the reaction was measured using a BMG LABTECH CLARIO star Plus via TR-FRET. […] The POC values were fit to a 4-parameter IC50 equation and the IC50 value reported.

KRas Q61H = target: T1, KRas Q61H (Homo sapiens, UniProt P01116, Q61H); assay: KRas binding assay (TR-FRET displacement);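 also: TR-FRET signal read after one hour at room temperature, IC50 derived by four-parameter fitting of percent-of-control values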
T1 construct: Biotinylated KRas (corresponding to amino acids 1-169, produced at Accelegan Inc.); biotin (biotinylated); purchased Accelegan Inc
Experimental: as §2

[1] = system: phospho-ERK in AsPC-1 (G12D) cells; assay: Inhibition of KRas-mediated phosphorylation of ERK (in-cell western); format: cell-based; details: Homo sapiens, ASPC1, 3 h, 3 hours compound, phospho-ERK normalized to GAPDH
How it was run: (§1)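 After a 3-hour incubation with diluted compound in 0.5% DMSO, cells are fixed, permeabilized and stained overnight at 4° C for phosphorylated ERK and GAPDH.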

[2] = system: phospho-ERK in NCI-H727 (G12V) cells; assay: as above; format: cell-based; details: Homo sapiens, NCI-H727, 3 h, 3 hours compound, phospho-ERK normalized to GAPDH
How it was run: as §1

[3] = system: phospho-ERK in NCI-H460 (Q61H) cells; assay: as above; format: cell-based; details: Homo sapiens, NCI-H460, 3 h, 3 hours compound, phospho-ERK normalized to GAPDH
How it was run: as §1

KRas G13D = target: T2, KRas G13D (Homo sapiens, UniProt P01116, G13D); assay: KRas binding assay (TR-FRET displacement);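 also: One-hour room temperature incubation before TR-FRET reading, IC50 from a four-parameter curve fit to percent-of-control data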
T2 construct: Biotinylated KRas (corresponding to amino acids 1-169, produced at Accelegan Inc.); biotin (biotinylated); purchased Accelegan Inc
Experimental: as §2

KRas G12S = KRas G12S (Homo sapiens, UniProt P01116, G12S); assay: biochemical;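 also: TR-FRET displacement binding to KRas, read after one hour incubation at room temperature, IC50 from four-parameter fit of percent of control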
Experimental: as §2

KRas G12C = KRas G12C (Homo sapiens, UniProt P01116, G12C); assay: biochemical;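 also: binding to KRas assessed by TR-FRET displacement after one hour incubation at room temperature, potency fitted from percent-of-control values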
Experimental: as §2

KRas G12V = KRas G12V (Homo sapiens, UniProt P01116, G12V); assay: biochemical;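 also: KRas binding measured by TR-FRET displacement at room temperature, IC50 fitted from percent of control values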
Experimental: as §2

KRas G12D = KRas G12D (Homo sapiens, UniProt P01116, G12D); assay: biochemical;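 also: TR-FRET displacement binding assay on KRas, read after a one-hour incubation at room temperature, IC50 fitted from percent-of-control values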
Experimental: as §2

KRas WT = KRas WT (Homo sapiens, UniProt P01116); assay: biochemical;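 also: binding to KRas read as TR-FRET displacement after a one-hour room-temperature incubation, IC50 derived from percent-of-control values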
Experimental: as §2

KRas G12R = KRas G12R (Homo sapiens, UniProt P01116, G12R); assay: biochemical;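 also: TR-FRET displacement assay of compound binding to KRas, read after one hour at room temperature, potency from a four-parameter fit of percent-of-control values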
Experimental: as §2

pERK in PSN1 cells = assay: Inhibition of KRas phosphorylation of ERK (Cisbio HTRF pERK assay); details: Homo sapiens, PSN1, 3 h, read-out: Inhibition (HTRF IC50) of KRas-mediated Phosphorylation of ERK, PSN1
pERK in A549 cells = assay: as above; details: Homo sapiens, A549, read-out: Inhibition (HTRF IC50) of KRas-mediated Phosphorylation of ERK, A549
pERK in ASPC1 cells = assay: as above; details: Homo sapiens, ASPC1, read-out: Inhibition (HTRF IC50) of KRas-mediated Phosphorylation of ERK, AsPC-1
pERK in MKN1 cells = assay: as above; details: Homo sapiens, MKN-1, 3 h, read-out: Inhibition (HTRF IC50) of KRas-mediated Phosphorylation of ERK, MKN1
pERK in HCT116 cells = assay: as above; details: Homo sapiens, HCT-116, read-out: Inhibition (HTRF IC50) of KRas-mediated Phosphorylation of ERK, HCT116
pERK in H727 cells = assay: as above; details: Homo sapiens, NCI-H727, read-out: Inhibition (HTRF IC50) of KRas-mediated Phosphorylation of ERK, H727
Experimental: To harvest cells from flask using 0.05% Trypsin/EDTA solution. Add 10 mL of media to stop trypsinizing. Pipette the cells into a conical bottom 50 mL centrifuge tube and centrifuge 5 min×1000 rpm. • 2. Re-suspend the cell pellet in media, take a cell count, and then adjust the cell density using fresh media. • 3. Seed 6,000 cells into cell culture plate with 50 μL media. […] Incubate cell plate overnight in a 37° C., 5% CO2 incubator. • Compound titrations • 1. Use Tecan to complete the compound addition. Compounds start from 10 uM top, 3-fold dilution, and 10 doses. The final DMSO concentration is 0.8%. Dispensed 0.2 uM Trametinib as Min control. • 2. Incubate cell plate for 3 hrs in the incubator. • Detection with cisbio pERK HTRF kit • 1. […] At the end of the compound treatment, flick-off the media. • 3. Add 35 μL of lysis buffer per well using a Multidrop Combi. Then place on a plate agitator shaking at 300 rpm at 4° C. for 40 mins. • 4. Make up the HTRF antibody buffer. For each assay plate, mix 50 μL of d2-conjugate antibody with 950 μL of detection buffer. Similarly, mix 50 μL of Cryptate antibody with 950 μL of detection buffer. Then mix the two diluted antibodies together. • 5. Dispense 3.4 μL the antibody buffer to wells of an empty assay plate. Seal the plate and centrifuge plate 30 sec×1000 rpm. • 6. At the end of the 4° C. lysis, centrifuge the lysate plates 3 mins×1500 rpm. • 7. Use the Bravo to transfer 13.6 μL of lysate from cell culture plate to assay plate.
Then incubate assay plate for 2 hrs at room temperature. […] At the end of incubation, read plate on the Envision after centrifuging plate 30 sec× • 1000 rpm.

pERK in H460 cells = assay: as above; details: Homo sapiens, NCI-H460, read-out: Inhibition (HTRF IC50) of KRas-mediated Phosphorylation of ERK, H460

Chain of KRas G12R (P01116 1-169 isoform P01116-2 G12R): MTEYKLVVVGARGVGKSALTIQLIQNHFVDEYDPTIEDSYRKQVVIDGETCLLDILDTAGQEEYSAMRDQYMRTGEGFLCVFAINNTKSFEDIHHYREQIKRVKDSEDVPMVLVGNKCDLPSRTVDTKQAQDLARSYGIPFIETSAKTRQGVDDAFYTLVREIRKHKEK
Chain of KRas G12D (P01116 1-169 isoform P01116-2 G12D): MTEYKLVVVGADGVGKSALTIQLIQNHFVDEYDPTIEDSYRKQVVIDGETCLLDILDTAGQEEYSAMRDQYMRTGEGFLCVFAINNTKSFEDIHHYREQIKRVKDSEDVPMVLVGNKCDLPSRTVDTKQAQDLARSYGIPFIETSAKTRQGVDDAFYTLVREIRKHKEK
Chain of KRas G12V (P01116 1-169 isoform P01116-2 G12V): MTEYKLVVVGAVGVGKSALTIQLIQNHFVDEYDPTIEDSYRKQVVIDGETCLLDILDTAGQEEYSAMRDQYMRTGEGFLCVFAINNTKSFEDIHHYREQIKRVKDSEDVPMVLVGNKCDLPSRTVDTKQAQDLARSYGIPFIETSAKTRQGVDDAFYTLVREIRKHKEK
T2 sequence (P01116 1-169 isoform P01116-2 G13D): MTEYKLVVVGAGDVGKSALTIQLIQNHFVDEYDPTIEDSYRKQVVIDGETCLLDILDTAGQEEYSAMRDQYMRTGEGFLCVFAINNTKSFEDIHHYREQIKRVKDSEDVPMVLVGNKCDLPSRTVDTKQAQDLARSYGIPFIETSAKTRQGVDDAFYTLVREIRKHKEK
Chain of KRas G12A (P01116 1-169 isoform P01116-2 G12A): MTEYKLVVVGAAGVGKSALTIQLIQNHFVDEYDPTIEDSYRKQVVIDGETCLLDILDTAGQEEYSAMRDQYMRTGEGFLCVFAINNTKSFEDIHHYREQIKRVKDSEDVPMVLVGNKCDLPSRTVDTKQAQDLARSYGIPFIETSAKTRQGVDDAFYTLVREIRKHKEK
T1 sequence (P01116 1-169 isoform P01116-2 Q61H): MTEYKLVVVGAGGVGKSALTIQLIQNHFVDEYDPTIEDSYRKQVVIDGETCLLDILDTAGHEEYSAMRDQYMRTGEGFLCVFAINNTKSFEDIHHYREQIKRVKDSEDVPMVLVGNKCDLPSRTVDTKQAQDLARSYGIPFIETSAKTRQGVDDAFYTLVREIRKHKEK
Chain of KRas G12S (P01116 1-169 isoform P01116-2 G12S): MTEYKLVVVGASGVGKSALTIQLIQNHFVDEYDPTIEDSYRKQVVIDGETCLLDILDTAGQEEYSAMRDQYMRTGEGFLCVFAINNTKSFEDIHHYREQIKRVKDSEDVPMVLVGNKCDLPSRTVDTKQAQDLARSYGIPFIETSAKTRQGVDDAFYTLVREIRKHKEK
Chain of KRas G12C (P01116 1-169 isoform P01116-2 G12C): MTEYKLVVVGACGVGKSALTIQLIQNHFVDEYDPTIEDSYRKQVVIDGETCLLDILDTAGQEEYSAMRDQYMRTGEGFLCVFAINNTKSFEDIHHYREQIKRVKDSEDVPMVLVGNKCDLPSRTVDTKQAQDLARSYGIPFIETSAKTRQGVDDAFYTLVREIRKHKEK
Chain of KRas WT (P01116 1-169 isoform P01116-2): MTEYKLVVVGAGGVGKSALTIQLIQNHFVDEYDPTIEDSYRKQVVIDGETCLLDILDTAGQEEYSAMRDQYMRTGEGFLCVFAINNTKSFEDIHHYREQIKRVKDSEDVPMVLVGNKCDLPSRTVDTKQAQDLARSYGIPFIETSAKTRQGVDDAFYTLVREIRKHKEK

| Structure (SMILES) | IC50 (KRas G12A) | IC50 (KRas Q61H) | IC50 (KRas G13D) | IC50 (KRas G12S) | IC50 (KRas G12C) | IC50 (KRas G12V) | IC50 (KRas G12D) | IC50 (KRas WT) | IC50 (KRas G12R) | IC50 (pERK in PSN1 cells) | IC50 (pERK in A549 cells) | IC50 (pERK in ASPC1 cells) | IC50 (pERK in MKN1 cells) | IC50 (pERK in HCT116 cells) | IC50 (pERK in H727 cells) | IC50 (pERK in H460 cells) | IC50 [1] | IC50 [2] | IC50 [3] |
| --- | --- | --- | --- | --- | --- | --- | --- | --- | --- | --- | --- | --- | --- | --- | --- | --- | --- | --- | --- |
| C[C@H]1C[C@H]1c1c(Cl)cc2[nH]ncc2c1-c1ncc2c(N3CCC[C@@](C)(O)C3)nc(OC[C@@]34CCCN3C[C@H](F)C4)nc2c1F (racemic) [Example 153, (3R)-1-(7-(6-chloro-5-(2-methylcyclopropyl)-1H-indazol-4-yl)-8-fluoro-2-(((2R,7aS)-2-fluorotetrahydro-1H-pyrrolizin-7a(5H)-yl)methoxy)pyrido[4,3-d]pyrimidin-4-yl)-3-methylpiperidin-3-ol] | 7 nM | 7 nM | 8 nM | 7 nM | 7 nM | 5 nM | 6 nM | 6 nM | 10 nM | – | – | – | – | – | – | – | 233 nM | 500 nM | 306 nM |
| CCc1c(F)ccc2cc(O)cc(-c3ncc4c(N5CCC[C@@](C)(O)C5)nc(OC[C@@]56CCCN5C[C@H](F)C6)nc4c3F)c12 [Example 5] | – | – | – | – | – | – | – | – | – | 364 nM | 2 nM | 2 nM | – | – | – | – | – | – | – |
| CCc1c(F)ccc2cc(O)cc(-c3ncc4c(N5CCCCC(S(C)(=O)=O)C5)nc(OC[C@@]56CCCN5C[C@H](F)C6)nc4c3F)c12 (stereo partly drawn) [Example 308, 5-ethyl-6-fluoro-4-(8-fluoro-2-(((2R,7aS)-2-fluorohexahydro-1H-pyrrolizin-7a-yl)methoxy)-4-(3-(methylsulfonyl)azepan-1-yl)pyrido[4,3-d]pyrimidin-7-yl)naphthalen-2-ol] | – | – | – | – | – | 4 nM | 6 nM | – | 10 nM | ≥ 10000 nM | – | 155 nM | 40 nM | 284 nM | 278 nM | – | 489 nM | 627 nM | 372 nM |
| CCc1c(F)ccc2cc(O)cc(-c3ncc4c(N5CCCC6(CCC6O)C5)nc(OC[C@@]56CCCN5C[C@H](F)C6)nc4c3F)c12 (stereo partly drawn) [Example 351, 6-(7-(8-ethyl-7-fluoro-3-hydroxynaphthalen-1-yl)-8-fluoro-2-(((2R,7aS)-2-fluorohexahydro-1H-pyrrolizin-7a-yl)methoxy)pyrido[4,3-d]pyrimidin-4-yl)-6-azaspiro[3.5]nonan-1-ol] | – | – | – | – | – | 15 nM | 13 nM | – | 11 nM | 7180 nM | 185 nM | 228 nM | 48 nM | 346 nM | 551 nM | 182 nM | – | – | – |
| O=C1CC2(CCCN(c3nc(OC[C@@]45CCCN4C[C@H](F)C5)nc4c(F)c(-c5cc(O)cc6ccc(F)c(Br)c56)ncc34)C2)N1 (stereo partly drawn) [Example 405, 6-(7-(8-bromo-7-fluoro-3-hydroxynaphthalen-1-yl)-8-fluoro-2-(((2R,7aS)-2-fluorohexahydro-1H-pyrrolizin-7a-yl)methoxy)pyrido[4,3-d]pyrimidin-4-yl)-1,6-diazaspiro[3.5]nonan-2-one] | – | – | – | – | – | ≤ 2 nM | ≤ 2 nM | – | ≤ 2 nM | 6730 nM | 247 nM | 238 nM | 45 nM | 2210 nM | 114 nM | 155 nM | – | – | – |
| CN(C)CC1(COc2nc(N3CCCC4(CNS(=O)(=O)N4)C3)c3cnc(-c4cc(O)cc5ccc(F)c(Cl)c45)c(F)c3n2)CC1 (centres unmarked) [Example 428, 7-(7-(8-chloro-7-fluoro-3-hydroxynaphthalen-1-yl)-2-((1-((dimethylamino)methyl)cyclopropyl)methoxy)-8-fluoropyrido[4,3-d]pyrimidin-4-yl)-2-thia-1,3,7-triazaspiro[4.5]decane 2,2-dioxide] | – | – | – | – | – | ≤ 2 nM | ≤ 2 nM | – | ≤ 2 nM | 3280 nM | 183 nM | 339 nM | 28 nM | 896 nM | 425 nM | – | – | – | – |
| CCc1c(F)ccc2cc(O)cc(-c3ncc4c(N5CC6C(=O)NC(=O)C6(C)C5)nc(OC[C@@]56CCCN5C[C@H](F)C6)nc4c3F)c12 (stereo partly drawn) [Example 482, 5-(7-(8-ethyl-7-fluoro-3-hydroxynaphthalen-1-yl)-8-fluoro-2-(((2R,7aS)-2-fluorohexahydro-1H-pyrrolizin-7a-yl)methoxy)pyrido[4,3-d]pyrimidin-4-yl)-3a-methyltetrahydropyrrolo[3,4-c]pyrrole-1,3(2H,3aH)-dione] | – | – | – | – | – | ≤ 2 nM | ≤ 2 nM | – | 3 nM | ≥ 10000 nM | 390 nM | 546 nM | 26 nM | – | 128 nM | 124 nM | – | – | – |

Continued, in another order:

| IC50 (KRas G12A) | IC50 (KRas Q61H) | IC50 (KRas G13D) | IC50 (KRas G12S) | IC50 (KRas G12C) | IC50 (KRas G12V) | IC50 (KRas G12D) | IC50 (KRas WT) | IC50 (KRas G12R) | IC50 (pERK in PSN1 cells) | IC50 (pERK in A549 cells) | IC50 (pERK in ASPC1 cells) | IC50 (pERK in MKN1 cells) | IC50 (pERK in HCT116 cells) | IC50 (pERK in H727 cells) | IC50 (pERK in H460 cells) | Structure (SMILES) | IC50 [1] | IC50 [2] | IC50 [3] |
| --- | --- | --- | --- | --- | --- | --- | --- | --- | --- | --- | --- | --- | --- | --- | --- | --- | --- | --- | --- |
| – | – | – | – | – | ≤ 2 nM | ≤ 2 nM | – | ≤ 2 nM | ≥ 10000 nM | 219 nM | 121 nM | 26 nM | 645 nM | 578 nM | 117 nM | CCc1c(F)ccc2cc(O)cc(-c3ncc4c(N5CCCC6(CNS(=O)(=O)N6)C5)nc(OCC5(CN(C)C)CC5)nc4c3F)c12 (centres unmarked) [Example 364, 7-(2-((1-((dimethylamino)methyl)cyclopropyl)methoxy)-7-(8-ethyl-7-fluoro-3-hydroxynaphthalen-1-yl)-8-fluoropyrido[4,3-d]pyrimidin-4-yl)-2-thia-1,3,7-triazaspiro[4.5]decane 2,2-dioxide] | – | – | – |
| – | – | – | – | – | ≤ 2 nM | ≤ 2 nM | – | ≤ 2 nM | 748 nM | 114 nM | 195 nM | 8 nM | 190 nM | 16 nM | 175 nM | C#Cc1c(F)ccc2cc(O)cc(-c3ncc4c(N5CC6CC(O)CC5C6)nc(OC[C@@]56CCCN5C[C@H](F)C6)nc4c3F)c12 (stereo partly drawn) [Example 390, 6-(7-(8-ethynyl-7-fluoro-3-hydroxynaphthalen-1-yl)-8-fluoro-2-(((2R,7aS)-2-fluorohexahydro-1H-pyrrolizin-7a-yl)methoxy)pyrido[4,3-d]pyrimidin-4-yl)-6-azabicyclo[3,2,1]octan-3-ol] | – | – | – |
| – | – | – | – | – | ≤ 2 nM | ≤ 2 nM | – | ≤ 2 nM | ≥ 10000 nM | 567 nM | 158 nM | 46 nM | 1720 nM | 368 nM | 1070 nM | C#Cc1c(F)ccc2cc(O)cc(-c3ncc4c(N5CCCn6nc(N)cc6C5)nc(OC[C@@]56CCCN5C[C@H](F)C6)nc4c3F)c12 [Example 394, 4-(4-(2-amino-7,8-dihydro-4H-pyrazolo[1,5-a][1,4]diazepin-5(6H)-yl)-8-fluoro-2-(((2R,7aS)-2-fluorohexahydro-1H-pyrrolizin-7a-yl)methoxy)pyrido[4,3-d]pyrimidin-7-yl)-5-ethynyl-6-fluoronaphthalen-2-ol] | – | – | – |
| – | – | – | – | – | ≤ 2 nM | 6 nM | – | ≤ 2 nM | 3820 nM | 96 nM | 426 nM | 20 nM | 487 nM | 79 nM | 182 nM | Oc1cc(-c2ncc3c(N4CC5CC(O)CC4C5)nc(OC[C@@]45CCCN4C[C@H](F)C5)nc3c2F)c2c(Br)c(F)ccc2c1 (stereo partly drawn) [Example 403, 6-(7-(8-bromo-7-fluoro-3-hydroxynaphthalen-1-yl)-8-fluoro-2-(((2R,7aS)-2-fluorohexahydro-1H-pyrrolizin-7a-yl)methoxy)pyrido[4,3-d]pyrimidin-4-yl)-6-azabicyclo[3.2.1]octan-3-ol] | – | – | – |
